The solubility (kinetic) is the concentration staying in solution when a stock, usually in DMSO, is diluted into the medium.

Values after ≈ are worked out from the molar mass of the structure shown.

The text below walks through data of PubChem BioAssay AID1996.

The conditions of this data set: buffer; pH 7.4; 200.0 µM.
On to `COc1ccc(CC(=O)Nc2ccc(OC(C)=O)cc2C(=O)O)cc1`, for which the kinetic solubility was above 51.5 µg/mL.

In turn, `COc1ccc2[nH]c(C(=O)Nc3ccc4c(c3)OCO4)cc2c1` returned a solubility (kinetic) of 1.1 µg/mL (≈ 3.54 µM).

`c1ccc(-c2cc(-c3ccccc3)on2)cc1` came in with a kinetic solubility below 0.5 µg/mL.

`Cc1ccc(Cc2c(C)c(C#N)c3[nH]c4ccccc4n3c2=O)cc1` had a kinetic solubility below 0.2 µg/mL.

`Cc1cccc(C(=O)NC2CCCCCCC2)c1`: the solubility (kinetic) stood at 8.9 µg/mL (≈ 36.3 µM).

`COC(=O)C(Cc1ccc(O)cc1)NC(=O)CCc1ccco1` (configuration not stated) registered a kinetic solubility of 46.5 µg/mL (≈ 147 µM).

On to `Cc1cccc(NC(=O)Nc2cnccn2)c1C`, for which the kinetic solubility was 1.9 µg/mL (≈ 7.84 µM).

`CCCNC(=S)N1CCC(n2cnc3ccccc32)CC1`: the kinetic solubility is above 45.4 µg/mL.

On to `COc1ccccc1CNC(=O)COc1ccc2c(c1)CCC2`, for which the solubility (kinetic) was 20.5 µg/mL (≈ 65.8 µM).

In turn, `Cc1onc(-c2ccccc2)c1CNS(=O)(=O)c1ccccc1` displayed a solubility (kinetic) of 44 µg/mL (≈ 134 µM).

`CC(=O)c1ccc(N2CCN(C(=O)CCc3ccccc3)CC2)cc1` yielded a kinetic solubility above 50.5 µg/mL.

Turning to `CCc1ccc(NC(=S)N2CCCCCCC2)cc1`, the solubility (kinetic) was 35.1 µg/mL (≈ 127 µM).

`O=C(CSc1ncnc2sccc12)Nc1ccccc1` showed a solubility (kinetic) of 6.9 µg/mL (≈ 22.9 µM).

Molecule `COc1ccc(/C=C(\C)C(=O)c2c(C)cc(C)[nH]c2=O)cc1` came in with a kinetic solubility of 42.9 µg/mL (≈ 144 µM).

The molecule `Cc1ccc(CC(=O)NCCc2ccc(S(N)(=O)=O)cc2)cc1` displayed a solubility (kinetic) above 49.9 µg/mL.

In turn, `COc1cccc2cc(-c3nc4ccccc4o3)c(=O)oc12` gave a kinetic solubility of 1.7 µg/mL (≈ 5.8 µM).

Molecule `O=C(CSc1nc2ccccc2c2c1CCCC2)N1CCOCC1` showed a solubility (kinetic) of 9.9 µg/mL (≈ 28.9 µM).

Turning to `CCc1c(O)c(-c2ccccc2)c(=O)n(-c2ccccn2)c1-c1ccccc1`, the kinetic solubility is above 55.3 µg/mL.

Consider `CCCCCCC1CCC(C(=O)N2CCOCC2)CC1` (configuration not stated), for which the solubility (kinetic) is 10 µg/mL (≈ 35.5 µM).

As for `Cn1c(SCC(=O)Nc2sccc2C#N)nnc1C1CC1`, the solubility (kinetic) is above 47.9 µg/mL.

`Cc1ccccc1C(=O)NC(=S)NCc1ccccc1` displayed a solubility (kinetic) below 0.3 µg/mL.

`CC(=O)Nc1ccc(Cl)c(-c2nc3ncccc3o2)c1`: the solubility (kinetic) worked out at 41.5 µg/mL (≈ 144 µM).

`O=C(Cc1ccc(Cl)cc1Cl)NCc1cccnc1` yielded a kinetic solubility above 44.3 µg/mL.

`CCOc1ccccc1NC(=O)CN1CCc2ccccc2C1` came in with a solubility (kinetic) of 1.9 µg/mL (≈ 6.12 µM).

In turn, `COc1cccc(C(=O)NCCNC(=O)c2cnccn2)c1` yielded a kinetic solubility of 30.9 µg/mL (≈ 103 µM).

`Cc1ccc(/C=C/C(=O)NN2CCN(C)CC2)cc1` had a kinetic solubility above 38.9 µg/mL.

Molecule `CC(C)(C)c1cc(CCC(=O)Nc2ccncc2)cc(C(C)(C)C)c1O` displayed a solubility (kinetic) of 40.4 µg/mL (≈ 114 µM).

In turn, `O=C1C2C3CCC(O3)C2C(=O)N1c1cccc(F)c1` (configuration not stated) yielded a kinetic solubility of 39.2 µg/mL (≈ 150 µM).

Turning to `Nc1ccc2nc(-c3ccccc3)cnc2c1`, the solubility (kinetic) was determined as 26.6 µg/mL (≈ 120 µM).

The molecule `c1ccc2ncccc2c1` displayed a solubility (kinetic) of 12.4 µg/mL (≈ 96 µM).

As to `Cn1c(CC(=O)Nc2ccccc2)cc2ccccc21`, the kinetic solubility worked out at 1.7 µg/mL (≈ 6.43 µM).

For the molecule `Cc1ccccc1-c1noc(CNC(=O)COc2ccccc2)n1`, the solubility (kinetic) is 7.7 µg/mL (≈ 23.8 µM).

On to `CC(=O)C1C(c2ccc(F)cc2)c2c(noc2C)CC1(C)O` (configuration not stated), for which the kinetic solubility is above 45.5 µg/mL.

`COc1ccccc1C(=O)OC(C)CN1CCN(C)CC1.Cl` (configuration not stated) displayed a solubility (kinetic) above 49.3 µg/mL.

The molecule `Cc1csc(NC(=O)c2sccc2C)n1` registered a solubility (kinetic) above 35.7 µg/mL.

`COc1ccc(NC(=O)COC(=O)Cc2c[nH]c3ccccc23)cc1Cl` displayed a kinetic solubility of 4.1 µg/mL (≈ 11 µM).

Molecule `COc1ccc(C(=O)N2CCC(O)(c3ccc(Cl)cc3)CC2)cc1OC` displayed a solubility (kinetic) above 56.4 µg/mL.

As to `CC(C)c1ccc(-c2c(NCCc3ccccc3)c(=O)c2=O)cc1`, the solubility (kinetic) worked out at 0.9 µg/mL (≈ 2.82 µM).

Molecule `CCOc1ccc(C(=O)NCc2ccco2)cc1Cl` yielded a solubility (kinetic) of 34.5 µg/mL (≈ 123 µM).

In the case of `CN(O)/C=N/C(=S)Nc1ccc(Cl)cc1Cl`, the kinetic solubility was 38.4 µg/mL (≈ 138 µM).

`COc1ccc(CCNC(=O)CSCC(=O)Nc2cc(S(C)(=O)=O)ccc2Cl)cc1` had a solubility (kinetic) of 18.6 µg/mL (≈ 39.5 µM).

The molecule `COC(=O)c1c(C)[nH]c(C(=O)NCc2ccco2)c1C` gave a solubility (kinetic) of 35.3 µg/mL (≈ 128 µM).
